Test results taken from patent US11034726B2, “Gene expression inhibitors” (PIVARIS BIOSCIENCE GMBH, priority 2017, dated 2021).
Ends that are not written are not given here. Peptide text beside a SMILES is read from it.

Tests used:
[1] = test system: baculovirus encoding luciferase under control of the CMV promoter; assay: Baculovirus-mediated luciferase gene expression in HEK293 cells; assay type: cell-based; conditions: for baculovirus-mediated luciferase expression (in words): HEK293 pretreated for 10 minutes
Description: A baculovirus was generated with the luciferase coding region under control of the CMV promoter integrated in its viral genome. The baculovirus was applied to HEK293 cells pretreated for 10 minutes with DMSO or increasing concentrations of peptide I24, TAT and the fusion peptide TAT-I24. Luciferase expression is reduced in cells treated with cell-permeable fusion peptide TAT-I24 in a dose-dependent manner (FIG. 7a). Baculovirus-infected cells incubated with DMSO, TAT-I24 or TAT were stimulated with TNF-α and total RNA isolated from cells. After treatment of the RNA with DNAse I, reverse transcription was performed. Luciferase and IL-8 mRNA were analysed by real-time PCR.

[2] = test system: adenovirus encoding luciferase and GFP; assay: Adenovirus gene expression and replication in HEK293 cells; assay type: cell-based
Description: HEK293 cells were treated with increasing concentrations of the peptides I24, TAT-I24 or TAT alone and incubated with adenovirus encoding luciferase and green fluorescence protein (GFP) under control of the CMV promoter. […] HEK293 cells were treated with vehicle control, the peptide I24, TAT-I24 or TAT alone (20 μM) and adenovirus particles encoding luciferase and GFP. After 72 hrs, RNA was isolated and luciferase and GFP as well as adenovirus hexon transcript levels analysed by real-time PCR and normalized to GAPDH. […] DNA was isolated from supernatants and adenovirus hexon DNA quantified using real-time PCR (FIG. 8c).

vaccinia virus = assay type: cell-based; conditions: for rpo22 mRNA levels (in words): normalized to GAPDH
[3] = test system: lentivirus containing luciferase under control of the CMV promoter; assay: Lentivirus luciferase gene expression in HEK293 cells; assay type: cell-based; conditions: 20 μM, 48 hrs
Description: HEK293 cells were incubated with peptide I24, TAT-tagged peptide I24 (TAT-I24), or TAT followed by addition of lentivirus containing luciferase under control of the CMV promoter for 48 hrs.

herpes simplex virus = assay: Herpes simplex virus plaque-formation assay; assay type: cell-based
Source text: Cells were infected with herpes simplex virus and replication of virus determined by a plaque-formation assay (see examples above). Replication of herpes simplex virus was inhibited by TAT-I24 in a dose-dependent manner.

[4] = test system: plasmid-encoded luciferase in HEK293 cells; assay: Transient transfection of luciferase expression plasmid (CMV promoter) with peptide, luciferase in cell lysates; conditions: for luciferase % of DMSO con-: peptide 2 μM, 24 hrs post-transfection, HEK293, relative to DMSO control; for inhibition of luciferase production (in words): peptide transfected with CMV-luciferase plasmid, HEK293, 24 hrs; for IC50: read-out: IC50 inhibition of plasmid-encoded luciferase levels, transfected together with the plasmid-DNA
[5] = test system: plasmid-encoded green fluorescence protein (GFP) in HEK293 cells; assay: Transfection of GFP expression plasmid, Western blot and GFP-positive cells; assay type: cell-based, human; conditions: 2 μM
[6] = test system: luciferase under control of the truncated interleukin-8 (IL-8) promoter in HEK293 cells; assay: Transfection of luciferase under truncated IL-8 promoter, TNF-α stimulation; assay type: cell-based, human; conditions: 24 hrs post-transfection, TNF-α 6 hrs after transfection
Source text: (§1) HEK293 cells were transiently transfected with a construct containing the luciferase coding region under control of the truncated interleukin-8 (IL-8) promoter and peptide I24 and stimulated with tumor necrosis factor (TNF)-α 6 hrs after transfection and analysed 24 hrs post-transfection for expression of luciferase in cell lysates and released IL-8 in the supernatants by ELISA.

[7] = test system: endogenous interleukin-8 in HEK293 cells; assay: Endogenous IL-8 release by ELISA in transfected, TNF-α-stimulated cells; assay type: cell-based, human; conditions: 24 hrs post-transfection
Source text: as §1

[8] = test system: plasmid-encoded luciferase in COS-7 cells; assay: Transfection of CMV-luciferase plasmid in COS-7 cells, luciferase protein and mRNA; assay type: cell-based, African green monkey
Description: COS-7 African green monkey kidney cells were transfected with an expression plasmid driving luciferase under control of the CMV promoter and luciferase determined in cell lysates. For analysis of expression of luciferase mRNA, total RNA was isolated, treated with DNAse I and subjected to reverse transcription using random hexamers. Real-time PCR was performed with hydrolysis probes detecting luciferase and normalized to 18S rRNA transcript levels.
(§2) The cell lines African Green Monkey kidney cells CV-1 and COS-7, as well as the human breast cancer cell line MCF-7 and the human colon cancer cell lines HT-29 were transiently transfected with a plasmid containing luciferase under control of a CMV promoter and different concentrations of peptide I24.

[9] = test system: plasmid-encoded luciferase and neomycin resistance gene mRNA in HEK293 cells; assay: Real-time PCR of luciferase (CMV promoter) and neomycin resistance gene (early SV40 promoter) mRNA from one plasmid; assay type: cell-based, human; conditions: increasing concentration, 24 hrs, normalized against GAPDH
Description: HEK293 cells were transiently transfected in the presence of increasing concentrations of peptide I24 with an expression plasmid containing luciferase under control of the CMV promoter and the neomycin resistance gene under control of the early SV40 promoter. After 24 hrs, total RNA was isolated from the cells, digested with DNAse I to remove plasmid-DNA and subjected to reverse transcription. Quantitative real-time PCR analysis of luciferase and neomycin mRNA was performed using hydrolysis probes and normalized against GAPDH transcripts.

[10] = test system: plasmid-encoded luciferase in CV-1 cells; assay: Transfection of CMV-luciferase plasmid in CV-1 cells; assay type: cell-based, African Green Monkey; conditions: CV-1, different concentrations
Source text: as §2, with “[…].” for “I24.”

[11] = test system: plasmid-encoded luciferase in MCF-7 cells; assay: Transfection of CMV-luciferase plasmid in MCF-7 cells; assay type: cell-based, human; conditions: MCF-7, different concentrations
Source text: as §2, with “[…].” for “I24.”

[12] = test system: plasmid-encoded luciferase in HT-29 cells; assay: Transfection of CMV-luciferase plasmid in HT-29 cells; assay type: cell-based, human; conditions: HT-29, different concentrations
Source text: as §2, with “[…].” for “I24.”

Escherichia coli [13] = assay: Colony formation of E. coli transformed with antibiotic resistance plasmid and peptide; assay type: cell-based
Source text: Competent Escherichia coli cells were transformed with a plasmid containing an ampicillin resistance gene or a kanamycin resistance gene and either DMSO as vehicle control or I24. On the next day, number of colonies was reduced in the presence of peptide I24 compared to the vehicle control (FIG. 11).

Escherichia coli [14] = assay: Plasmid copy numbers and β-lactamase mRNA in transformed E. coli by real-time PCR; assay type: cell-based; conditions: normalized to E. coli single-copy gene
Description: Competent Escherichia coli cells were transformed with a plasmid containing an ampicillin resistance gene and peptide I24. After indicated time-points, total plasmid numbers and β-lactamase mRNA levels were determined by real-time PCR normalized to an E. coli single-copy gene.

[15] = TNF-α stimulated, real-time PCR

In the case of `CC(C)C[C@H](NC(=O)[C@H](CS)NC(=O)[C@H](CCC(N)=O)NC(=O)[C@@H]1CCCN1C(=O)[C@@H]1CCCN1C(=O)[C@H](CCCNC(=N)N)NC(=O)[C@H](CCCNC(=N)N)NC(=O)[C@H](CCCNC(=N)N)NC(=O)[C@H](CCC(N)=O)NC(=O)[C@H](CCCNC(=N)N)NC(=O)[C@H](CCCNC(=N)N)NC(=O)[C@H](CCCCN)NC(=O)[C@H](CCCCN)NC(=O)[C@H](CCCNC(=N)N)NC(=O)CN)C(=O)N[C@@H](C)C(=O)N[C@@H](Cc1ccccc1)C(=O)N[C@@H](Cc1ccc(O)cc1)C(=O)N[C@@H](C)C(=O)N[C@@H](CS)C(=O)N[C@@H](Cc1ccccc1)C(=O)N[C@@H](CS)C(=O)O` [TAT-I24] (H-GRKKRRQRRRPPQCLAFYACFC-OH; N-terminus and C-terminus assumed), the “baculovirus-mediated luciferase expression (in words)” value [1] is reported as “reduced”, the “IL-8 mRNA levels (cellular gene)” value [1, 15] is reported as “remained unaffected” and the “luciferase mRNA (baculovirus-encoded)” value [1, 15] is reported as “down-regulated”. The “luciferase, GFP and adenovirus hexon transcript levels” value ([2]; 20 μM, 72 hrs, normalized to GAPDH) was “inhibition of all three adenovirus-encoded genes”, the “cell detachment of virus-infected HEK293 cells” value ([2]; 96 hrs after infection, crystal violet staining) was “inhibition of cell detachment” and the IC50 ([2]; HEK293, read-out: IC50 luciferase protein levels, adenovirus) was 6 µM. For the same molecule, the “adenovirus particles released to supernatants (hexon DNA)” value ([2]; real-time PCR of supernatant DNA) was “inhibits formation and release of adenovirus particles to supernatants”, the “inhibition of virus replication, vaccinia virus” value (vaccinia virus; 20 μM) was greater than 90% and the “reduction of amount of viral DNA in the supernatants” value (vaccinia virus; 20 μM, 24 hrs after infection) was greater than 90%. For the same molecule, the “reduction of number of plaque forming units (PFU) in the supernatants” value (vaccinia virus; 20 μM, plaque assay using BSC-40 cells) was greater than 90%, the “rpo22 mRNA levels (in words)” value (vaccinia virus; 24 hrs after infection) was “dose-dependently inhibited” and the “reduction in luciferase levels, lentivirus” value [3] was 75%. The “replication of herpes simplex virus” value (herpes simplex virus) was “inhibited”, the “luciferase % of DMSO con-” value [4] was 1.8% and the “inhibition of luciferase production (in words)” value (“inhibition … (in words)” for short) [4] was “more potent inhibition of luciferase expression”. It also gave an IC50 [4] of 60 nM.

With CAAFYACFC [I24 M11] the “luciferase % of DMSO con-” value [4] was 32.2%.

With CLAFRACFC [I24 M27] the “luciferase % of DMSO con-” value [4] was 110.9%.

CLAFYAC [I24 M2] was tested, and the “luciferase % of DMSO con-” value [4] was 110.1%.

CLAFYACFAC [I24 M5] was tested, and the “luciferase % of DMSO con-” value [4] was 10.6%.

With “CLAFYACFC (cysteine pairing not given here) [I24]” the “GFP production by Western blot” value [5] was “reduced”, the “number of GFP-positive cells” value [5] was “reduced” and the “TNF-α-induced luciferase expression (IL-8 promoter)” value [6] was “reduced TNF-α-induced luciferase expression”. The “release of IL-8 (ELISA)” value [7] was “not affected”, the “inhibition of the reporter gene luciferase” value ([8]; COS-7, different concentrations) was “Inhibition of the reporter gene luciferase was observed” and the luciferase protein levels ([8]; COS-7, different incubation times) was “downregulated”. The “luciferase mRNA levels” value ([8]; COS-7, normalized to 18S rRNA, different incubation times) was “downregulated”, the “reduction of luciferase transcripts (CMV promoter)” value [9] was 87% and the “reduction of neomycin mRNA levels (early SV40 promoter)” value [9] was “about 50%”. The “inhibition of the reporter gene luciferase” value [10] was “Inhibition of the reporter gene luciferase was observed”, the “inhibition of the reporter gene luciferase” value [11] was “Inhibition of the reporter gene luciferase was observed” and the “inhibition of the reporter gene luciferase” value [12] was “Inhibition of the reporter gene luciferase was observed”. The “baculovirus-mediated luciferase expression (in words)” value [1] was “only weakly active”, the “colony formation, peptide applied after transformation” value (Escherichia coli [13]; applied after transformation is completed) was “inactive” and the number of colonies (Escherichia coli [13]; peptide applied simultaneously with plasmid (ampicillin or kanamycin resistance gene)) was “reduced”. The plasmid copy numbers (Escherichia coli [14]; 4 and 6 hrs after transformation) was “downregulated”, the “β-lactamase mRNA levels” value (Escherichia coli [14]) was “downregulated” and the “inhibition of reporter gene expression” value ([4]; 2 μM) was “approximately 90%”. The “inhibition of reporter gene expression” value ([4]; 20 μM) was 90%, the “luciferase % of DMSO con-” value [4] was 12.2% and the “inhibition … (in words)” value [4] was “dose-dependent inhibition of luciferase production”.

With CLAFYACFCGGGCLAFYACFC [I24 dimer] the “luciferase % of DMSO con-” value [4] was 3.8% and the IC50 [4] was 90 nM.

In the case of CLAFYACFWC [I24 M20], the “luciferase % of DMSO con-” value [4] is reported as 5.6%.

With CLAFYACLWC [I24 M22] the “luciferase % of DMSO con-” value [4] was 6.8%.

CLAFYACRC [I24 M30] was tested, and the “luciferase % of DMSO con-” value [4] was 116.5%.

CLAFYARFC [I24 M29] was tested, and the “luciferase % of DMSO con-” value [4] was 56.3%.

In the case of CLAFYCFAC [I24 M14], the “luciferase % of DMSO con-” value [4] is reported as 63.2%.

In the case of CLAFYCFC [I24 M13], the “luciferase % of DMSO con-” value [4] is reported as 64.9%.

For CLAFYRCFC [I24 M28], the “luciferase % of DMSO con-” value [4] was 93.4%.

For CLARYACFC [I24 M26], the “luciferase % of DMSO con-” value [4] was 128.6%.

CLAYFCFC [I24 M16] was tested, and the “luciferase % of DMSO con-” value [4] was 68.7%.

With CLLYFCFC [I24 M17] the “luciferase % of DMSO con-” value [4] was 16.7%.

For CLVFYACFC [I24 M12], the “luciferase % of DMSO con-” value [4] was 11.8%.

FYACFAC [I24 M10] was tested, and the “luciferase % of DMSO con-” value [4] was 104.2%.

For FYACFC [I24 M9], the “luciferase % of DMSO con-” value [4] was 103.6%.

FYCFAC [I24_M19] was tested, and the “luciferase % of DMSO con-” value [4] was 118.6%.

For FYCFC [I24 M18], the “luciferase % of DMSO con-” value [4] was 107.8%.

In the case of GRKKRRQRRRPPQ [TAT, reference compound], the “rpo22 mRNA levels (in words)” value (vaccinia virus; 24 hrs after infection) is reported as “no inhibition” and the “inhibition … (in words)” value [4] is reported as “inactive”.

For SAFYACFAC [I24 M7], the “luciferase % of DMSO con-” value [4] was 75.9%.

For SLAFYACFAC [I24 M6], the “luciferase % of DMSO con-” value [4] was 41.9%.

With SLAFYASFS [I24 M4] the “luciferase % of DMSO con-” value [4] was 100.5%.

With SVFYACFAC [I24_M8] the “activity in the cellular transfection assay (in words)” value ([4]; 2 μM) was “no inhibitory effect” and the “luciferase % of DMSO con-” value [4] was 103.7%.

SVFYACFC [I24 M31] was tested, and the “luciferase % of DMSO con-” value [4] was 135.5%.

For WSEQCFTCWW [reference compound], the “activity in the cellular transfection assay (in words)” value ([4]; 2 μM) was “no inhibitory effect” and the “luciferase % of DMSO con-” value [4] was 106.2%.
